Measurements: US11524010B2, “Substituted quinazoline sulfonamides as thioredoxin interacting protein (TXNIP) inhibitors” (SOUTHERN RESEARCH INSTITUTE, priority 2017, dated 2022)
Entries after “also recorded” stand apart in the source; their conditions may differ.

Legend:
TXNIP [1] = test: Inhibition of glucose-induced endogenous TXNIP expression in INS-1 cells (qRT-PCR); type: cell-based, Rat; conditions: 25 mM glucose; for inhibition at 1.5 µM / inhibition at 12.5 µM: Rattus norvegicus, INS1, 24 h
Procedure: The Rat INS-1 cell line was obtained from UAB and maintained in RPMI-1640 (Invitrogen #11875) supplemented with 10% fetal bovine serum (FBS), 100 U/ml penicillin and […] streptomycin, 10 mM HEPES, 1 mM Sodium Pyruvate, 50 μM 2-Mercaptoethanol, and 11.1 mM Glucose in a humidified incubator with a 5% C02 atmosphere at 37° C. 4×10^4 cells per well were seeded to 96-well plate and incubated at 37° C. overnight. A subset of the cells were then cultured in medium with 5 mM Glucose for 24 hrs and then treated in medium with 25 mM glucose with or without compounds to be tested for another 24 hrs.
For the primary high throughput screening (HTS) assay, stably transfected, monoclonal INS-1 cells were split using Trypsin (2 ml per T75 flask) and seeded at a density of 10^4/well in a 384-well plate and incubated overnight at low, 5 mM glucose. The next day, the medium was changed to high glucose (25 mM) or high glucose plus the small molecules to be tested and luciferase assays were performed 24 h later. […] For secondary screens, total RNA was extracted from 96-well cultured cells using RNeasy 96 kit (Qiagen #74181) following the manufacturer's protocol using spin technology. Then a one-step qRT-PCR amplification was performed using QuantiFast SYBR Green RT-PCR kit (Qiagen #204154) and was carried out in a 10 μl reaction which consisted of 2 μl RNA, 0.5 μM each of primers (Rat TXNIP 5′ primer: […] (SEQ ID NO:1) and Rat TXNIP 3′ primer: […] (SEQ ID NO:2); Or Rat 18S rRNA 5′ primer: […] (SEQ ID NO:3) and Rat 18S rRNA 3′ primer: […]) (SEQ ID NO:4), 5 μl 2×SYBR Green Master Mix, 0.1 μl 10× QuantiFast RT Mix. The SYBR Green assay was performed using a LightCycler 480 II (Roche Applied Science) with an initial incubation at 50° C. for 10 min for RT followed by denaturation at 95° C. for 5 min. Forty cycles of amplification were performed using a thermal cycling profile of 95° C. for 10s, 60° C. for 30 s. Subsequently, a melting curve was recorded by holding at 95° C. for 60 s, cooling to 60° C. for 60 s, and then heating at 0.11° C./s up to 95° C. The data was collected and analyzed using the LightCycler 480 Software Release 1.5.0 SP3. The relative amount of TXNIP mRNA was normalized to 18 s rRNA level as a housekeeping gene, and the data was analyzed according to the 2^−ΔΔCT method (1). The transformed data was expressed as % inhibition and compound IC50 calculated by a 4-parameter logistic fit of the data using GraphPad Prism 7.

INS-1 cells = test: INS-1 cell viability (Cell Titer-Glo, ATP); type: cell-based, Rat; conditions: 72 hrs treatment, hydrochloride
Procedure: (§1) INS-1 cell viability was determined based on quantification of ATP using Cell Titer-Glo Luminescent Cell Viability Assay kit (Promega #G7572), which indicates the presence of metabolically active cells. Briefly, INS-1 cells were seeded into 96-well plates at a cell density of 4.5×10^4 and 3.5×10^4 cells per well and incubated overnight at 37° C. with 5% CO2. On the following day, cells were treated with compounds for 24 hrs and 72 hrs respectively. Cell Titer-Glo reagent was added to the cells and Luminescence was acquired on Synergy 4 Reader ([…]).

wild-type mice = test: Oral administration to wild-type mice (glucose, glucagon, hepatic glucose production, lipids); type: in vivo
Procedure: Compound #11a was administered for three weeks in the drinking water of wild-type mice at about 100 mg/kg/d.
Further studies of hepatic glucose production and whole body glucose turnover, i.e., peripheral glucose uptake into muscle and adipose tissue, were performed using hyperinsulinemic-euglycemic clamp studies.

alpha TC1-6 cells = test: Glucagon secretion of alpha TC1-6 cells; type: cell-based; conditions: incubation of alpha TC1-6 cells with compound
STZ-diabetic mice = test: Multiple low-dose STZ-induced diabetes in mice; type: in vivo
Procedure: After having been rendered overtly diabetic by multiple low-dose STZ injections, mice received compound #11a by gavage at a dose of 100 mg/kg b.i.d or 30 mg/kg b.i.d. or received a vehicle control.

db/db mice = test: Obese diabetic db/db mice (Type 2 diabetes model); type: in vivo; conditions: oral, 4 weeks
Procedure: Obese, insulin-resistant and diabetic, leptin receptor-deficient db/db mice were administered compound #11a as described above for 4 weeks. […] In addition, they can lower liver and serum lipid levels

[2] = INS-1 cell viability (Cell Titer-Glo, ATP); type: cell-based, Rat; conditions: rat, INS-1 cells, 72 hrs treatment
Procedure: as §1

TXNIP [3] = test: TXNIP expression in isolated primary human islets; type: cell-based
Procedure: (§2) Isolated primary human islets were cultured in the presence or absence of compound #11 (Table 1).

primary human islets = test: Cytokine-induced β-cell apoptosis in primary human islets; type: cell-based; conditions: Type 1 diabetes associated cytokines
Procedure: as §2

[4] = about 100 mg/kg/d in drinking water, three weeks
[5] = vs untreated db/db, hydrochloride

SMILES | inhibition at 1.5 µM (TXNIP [1]; 1.5 μM compound) [%] | inhibition at 12.5 µM (TXNIP [1]; 12.5 μM compound) [%] | CC50 at 72 h [2] [µM] | further results
CS(=O)(=O)NCC1CCCN(c2ncnc3ccc(C(F)(F)F)cc23)C1.Cl (centres unmarked) [Compound 11a, N-((1-(6-(trifluoromethyl)quinazolin-4-yl)piperidin-3-yl)methyl)methanesulfonamide hydrochloride] |  |  |  | TXNIP % Inhibition at 1.5 μM (TXNIP [1]; 1.5 μM compound, 24 hrs): 35%; TXNIP % Inhibition at 12.5 μM (TXNIP [1]; 12.5 μM compound, 24 hrs): 57%; CC50 (INS-1 cells): > 100 µM; blood glucose levels (wild-type mice; [4]): small but significant decrease; body weight (wild-type mice; [4]): no change; gross abnormalities in organs upon sacrifice (wild-type mice; [4]): no gross abnormalities; fasting serum glucagon levels (wild-type mice; about 100 mg/kg/d in drinking water, vs control): decreased; basal hepatic glucose production (wild-type mice; hyperinsulinemic-euglycemic clamp, vs control): significant decrease; liver triglyceride levels (wild-type mice; oral, vs control): two-fold lower; serum non-esterified fatty acids (wild-type mice; oral, vs control): significantly lower; serum triglycerides (wild-type mice; oral, vs control): significantly lower; glucagon secretion (alpha TC1-6 cells): decreased; blood glucose levels (STZ-diabetic mice; STZ (day 1-5) wild-type mice, oral compound day 5-15, vs untreated STZ mice): significantly lower; body weight (STZ-diabetic mice; STZ-treated mice, oral 100 mg/kg/d, hydrochloride, 100 mg/kg/day): no detrimental effect; also recorded: maintained a normal body weight; detrimental effects or abnormalities (STZ-diabetic mice; STZ-treated mice, oral 100 mg/kg/d, throughout experiment, sacrifice and dissection): no detrimental effects or abnormalities; protection against diabetes (STZ-diabetic mice; oral 100 mg/kg/d starting after multiple low-dose STZ regimen): effectively protected; blood glucose levels (STZ-diabetic mice; overtly diabetic STZ mice, gavage 100 mg/kg b.i.d or 30 mg/kg b.i.d., vs vehicle): significantly decreased in a dose-dependent manner; fasting serum glucagon levels (db/db mice): significant decrease; blood glucose levels (db/db mice; [5]): significantly lower; also recorded: decreased significantly; body weight (db/db mice; [5]): no significant effect; also recorded: no difference
CS(=O)(=O)NCC1CCCN(c2ncnc3ccc(C(F)(F)F)cc23)C1 (centres unmarked) [Compound 11, N-((1-(6-(trifluoromethyl)quinazolin-4-yl)piperidin-3-yl)methyl)methanesulfonamide] | 45 | 53 | 56 | pro-inflammatory cytokine-induced TXNIP expression (TXNIP [3]; Type 1 diabetes associated cytokines): protected; glucose-induced TXNIP expression (TXNIP [3]; high glucose, vs DMSO control): inhibition of TXNIP expression; also recorded: specifically inhibited; cytokine-induced β-cell apoptosis / death (primary human islets): inhibits; also recorded: protected
O=S(=O)(NCC1CCCN(c2ncnc3ccc(C(F)(F)F)cc23)C1)C1CCCCC1 (centres unmarked) [Compound 55, N-((1-(6-(trifluoromethyl)quinazolin-4-yl)piperidin-3-yl)methyl)cyclohexanesulfonamide] | 29 | 41 | 7 | 
COc1cc2ncnc(N3CCCC(CNS(C)(=O)=O)C3)c2cc1OC (centres unmarked) [Compound 8, N-((1-(6,7-dimethoxyquinazolin-4-yl)piperidin-3-yl)methyl)methanesulfonamide] | 0 | 7 | > 100 | 
NC(=O)c1cc2ncnc(N3CCCC(CNS(=O)(=O)C4CC4)C3)c2cc1F (centres unmarked) [Compound 59, 4-(3-(cyclopropanesulfonamidomethyl)piperidin-1-yl)-6-fluoroquinazoline-7-carboxamide] | 5 | 5 | > 100 | 
CS(=O)(=O)NC1CCCN(c2ncnc3ccc(Cl)cc23)C1 (centres unmarked) [Compound 35, N-(1-(6-chloroquinazolin-4-yl)piperidin-3-yl)methanesulfonamide] | 38 | 64 | 41 | 
CS(=O)(=O)NC1CCCN(c2ncnc3cc(F)c(F)cc23)C1 (centres unmarked) [Compound 33, N-(1-(6,7-difluoroquinazolin-4-yl)piperidin-3-yl)methanesulfonamide] | 29 | 68 | 68 | 
CS(=O)(=O)NCC1(F)CCCN(c2ncnc3cc(F)c(C#N)cc23)C1 (centres unmarked) [Compound 50, N-((1-(6-cyano-7-fluoroquinazolin-4-yl)-3-fluoropiperidin-3-yl)methyl)methanesulfonamide] | 2 | 18 | > 100 | 
CS(=O)(=O)NCC1CCCN(c2ncnc3cc(C(=O)O)ccc23)C1 (centres unmarked) [Compound 18, 4-(3-(methylsulfonamidomethyl)piperidin-1-yl)quinazoline-7-carboxylic acid] | 10 | 10 | > 100 | 
CC(C)N(CC1CCCN(c2ncnc3ccc(F)cc23)C1)S(=O)(=O)c1ccccc1 (centres unmarked) [Compound 42, N-((1-(6-fluoroquinazolin-4-yl)piperidin-3-yl)methyl)-N-isopropylbenzenesulfonamide] | 32 | 30 | 4 | 
CS(=O)(=O)NC1CCCN(c2ncnc3ccc(F)cc23)C1 (centres unmarked) [Compound 34, N-(1-(6-fluoroquinazolin-4-yl)piperidin-3-yl)methanesulfonamide] | 56 | 61 | 33 | 
COc1ccc2ncnc(N3CCCC(CNS(C)(=O)=O)C3)c2c1 (centres unmarked) [Compound 5, N-((1-(6-methoxyquinazolin-4-yl)piperidin-3-yl)methyl)methanesulfonamide] | 30 | 58 | > 100 | 
CS(=O)(=O)NCC1CCN(c2ncnc3ccc(F)cc23)CC1 [Compound 44, N-((1-(6-fluoroquinazolin-4-yl)piperidin-4-yl)methyl)methanesulfonamide] | 4 | 22 | > 100 | 
